Among the data in US20100075960A1 (priority 2006, published 2010) are IC50 values, retold here.

Each structure is given as a SMILES string. Structures can show the parent of a compound that is named as a salt.

In this experiment the test system is HCT116. Nature of the experiment: Inhibition of cell proliferation, HCT116. Format: cell-based. The settings on record: Homo sapiens, HCT-116; 72 h treatment; methylene blue or CellTiter-Glo. On the procedure:
II. Inhibition of Cell Proliferation by PLK1 Inhibitors.
Exponentially growing cell lines of different tumor origins, cultured in appropriate media containing 10% fetal bovine serum at 37° C. in a 5% CO2 incubator were plated in 96 or 384-well plates. Twenty four hours post-plating, cells were treated with different concentrations of test compounds ranging from 20 μM to 0.04 nM. Several wells were left untreated as a control. Seventy two hours post-treatment, cell numbers were determined using different techniques; 100 μl per well of methylene blue (Sigma M9140) (0.5% in 50:50 Ethanol:water), or 10-100 μl per well of CellTiter-Glo (Promega #G7573), depending on well size. For methylene blue staining, stain was incubated at room temperature for 30 minutes before plates were rinsed and dye solubilized in 1% N-lauroyl sarcosine, sodium salt, (Sigma L5125, in PBS). Plates were read on a microplate reader, measuring the OD at 620 nm. For CellTiter-Glo, plates were incubated at room temperature for 15 minutes and the chemiluminescent signal was read on the Victor V or Envison 2100 reader.
Percent inhibition of cell growth was expressed as percent proliferation relative to 100% proliferation (control). Concentration of test compound that inhibited 50% of cell growth (IC50) was determined by 4 parameter fit of data using XLfit, (value of no cell control was substracted from all samples for background). The data are shown in Table 1 and Table 2 below and represent a compilation of several different experiments each performed using the general parameters outlined above, although minor variations may have been employed in some instances, in Table 1 and Table 2, +=IC50>1 μM; ++=IC50 0.5-1 μM: +++=IC50<0.5 μM.
As for `C[C@@H](Oc1cc(-n2cnc3cc(-c4cnn(C)c4)ccc32)sc1C(N)=O)c1cccc(OCC2CCN(C(=O)OC(C)(C)C)CC2)c1Cl` [Example 43, 1,1-Dimethylethyl 4-[({3-[(1R)-1-({2-(aminocarbonyl)-5-[5-(1-methyl-1H-pyrazol-4-yl)-1H-benzimidazol-1-yl]-3-thienyl}oxy)ethyl]-2-chlorophenyl}oxy)methyl]-1-piperidinecarboxylate], the IC50 – broadly, the concentration at which inhibition is half-maximal – was more than 1000 nM.

Consider `COc1cc2ncn(-c3cc(O[C@H](C)c4cccc(OCC5CCNCC5)c4Cl)c(C(N)=O)s3)c2cc1OC` [Example 40, 5-[5,6-Bis(methyloxy)-1H-benzimidazol-1-yl]-3-[((1R)-1-{2-chloro-3-[(4-piperidinylmethyl)oxy]phenyl}ethyl)oxy]-2-thiophenecarboxamide], for which the IC50 was less than 500 nM.

In turn, `CN1CCC(Oc2cccc(COc3cc(-n4cnc5cc(-c6cnn(C)c6)ccc54)sc3C(N)=O)c2)CC1` [Example 84, 3-[({3-[(1Methyl-4piperidinyl)oxy]phenyl}methyl)oxy]-5-[5-(1-methyl-1H-pyrazol-4-yl)-1H-benzimidazol-1-yl]-2-thiophenecarboxamide] showed an IC50 of 500 to 1000 nM.

In the case of `CCN1CCC(Oc2cccc([C@@H](C)Oc3cc(-n4cnc5cc(Cl)ccc54)sc3C(N)=O)c2Cl)CC1` [Example 19, 5-(5-Chloro-1H-benzimidazol-1-yl)-3-[((1R)-1-{2-chloro-3-[(1-ethyl-4-piperidinyl)oxy]phenyl}ethyl)oxy]-2-thiophenecarboxamide], the 50% inhibitory concentration (IC50) is less than 500 nM.

Consider `C[C@@H](Oc1cc(-n2cnc3cc(-c4cnn(C)c4)ccc32)sc1C(N)=O)c1ccc(F)c(OC2CCN(C)CC2)c1Cl` [Example 34, 3-[((1R)-1-{2-Chloro-4-fluoro-3-[(1-methyl-4-piperidinyl)oxy]phenyl}ethyl)oxy]-5-[5-(1-methyl-1H-pyrazol-4-yl)-1H-benzimidazol-1-yl]-2-thiophenecarboxamide trifluoroacetate], for which the IC50 is less than 500 nM.

As to `C[C@@H](Oc1cc(-n2cnc3cc(Cl)ccc32)sc1C(N)=O)c1cccc(OC2CCN(CCS(C)(=O)=O)CC2)c1Cl` [Example 23, 5-(5-Chloro-1H-benzimidazol-1-yl)-3-({(1R)-1-[2-chloro-3-({1-[2-(methylsulfonyl)ethyl]-4-piperidinyl}oxy)phenyl]ethyl}oxy)-2-thiophenecarboxamide], the half-maximal inhibitory concentration (IC50) was less than 500 nM.

`C[C@@H](Oc1cc(-n2cnc3ccc(CS(C)(=O)=O)cc32)sc1C(N)=O)c1cccc(OCC2CCNCC2)c1Cl` [Example 56, 3-[((1R)-1-{2-chloro-3-[(4-piperidinylmethyl)oxy]phenyl}ethyl)oxy]-5-{6-[(methylsulfonyl)-methyl]-1H-benzimidazol-1-yl}-2-thiophenecarboxamide] showed an IC50 of more than 1000 nM.

With `C[C@@H](Oc1cc(-n2cnc3ccc(C#N)cc32)sc1C(N)=O)c1cccc(OC2CCNCC2)c1Cl` [Example 5, 3-{(1R)-1-[2-chloro-3-(piperidin-4-yloxy)phenyl]ethoxy}-5-(6-cyano-1H-benzimidazol-1-yl)thiophene-2-carboxamide], the 50% inhibitory concentration (IC50) is less than 500 nM.

As to `C[C@@H](Oc1cc(-n2cnc3ccc(CS(C)(=O)=O)cc32)sc1C(N)=O)c1cccc(OCC2CCCN2C)c1Cl` (stereo partly shown) [Example 57], the IC50 is more than 1000 nM.

Take `Cc1ccc(-c2ccc3c(c2)ncn3-c2cc(O[C@H](C)c3cccc(OC4CCNCC4)c3Cl)c(C(N)=O)s2)cn1` [Example 9, 3-({(1R)-1-[2-chloro-3-(4-piperidinyloxy)phenyl]ethyl}oxy)-5-[5-(6-methyl-3-pyridinyl)-1H-benzimidazol-1-yl]-2-thiophenecarboxamide]: the IC50 was less than 500 nM.

The compound `COc1cc2ncn(-c3cc(O[C@H](C)c4cccc(OCC5CCN(C)CC5)c4Cl)c(C(N)=O)s3)c2cc1OC` [Example 41, 5-[5,6-Bis(methyloxy)-1H-benzimidazol-1-yl]-3-{[(1R)-1-(2-chloro-3-{[(1-methyl-4-piperidinyl)methyl]oxy}phenyl)ethyl]oxy}-2-thiophenecarboxamide] gave a half-maximal inhibitory concentration (IC50) of less than 500 nM.

Compound `C[C@@H](Oc1cc(-n2cnc3ccccc32)sc1C(N)=O)c1cccc(OCCN2CCNCC2)c1Cl` [Example 16, 5-(1H-benzimidazol-1-yl)-3-{[(1R)-1-(2-chloro-3-{[2-(1-piperazinyl)ethyl]oxy}phenyl)ethyl]oxy}-2-thiophenecarboxamide] returned a concentration for half-maximal inhibition (IC50) of less than 500 nM.

`C[C@@H](Oc1cc(-n2cnc3cc(-c4cnn(C)c4)ccc32)sc1C(N)=O)c1c(F)ccc(OC2CCN(C)CC2)c1Cl` [Example 38, 3-[((1R)-1-{2-Chloro-6-fluoro-3-[(1-methyl-4-piperidinyl)oxy]phenyl}ethyl)oxy]-5-[5-(1-methyl-1H-pyrazol-4-yl)-1H-benzimidazol-1-yl]-2-thiophenecarboxamide] gave an IC50 of less than 500 nM.

In turn, `C[C@@H](Oc1cc(-n2cnc3ccccc32)sc1C(N)=O)c1cccc(OC2CCN(C)CC2)c1Cl` [Example 13, 5-(1H-benzimidazol-1-yl)-3-[((1R)-1-{2-chloro-3-[(1-methyl-4-piperidinyl)oxy]phenyl}ethyl)oxy]-2-thiophenecarboxamide] displayed an IC50 of less than 500 nM.

For `C[C@@H](Oc1cc(-n2cnc3ccc(Cl)cc32)sc1C(N)=O)c1cccc(OC2CCNCC2)c1Cl` [Example 52, 5-(6-Chloro-1H-benzimidazol-1-yl)-3-({(1R)-1-[2-chloro-3-(4-piperidinyloxy)phenyl}ethyl)oxy)-2-thiophenecarboxamide], the IC50 is less than 500 nM.

Compound `CC(Oc1cc(-n2cnc3cc(-c4cnn(C)c4)ccc32)sc1C(N)=O)c1cccc(OC2CCN(C)CC2)c1` (racemic) [Example 74, (±)-3-[(1-{3-[(1-methyl-4-piperidinyl)oxy]phenyl}ethyl)oxy]-5-[5-(1-methyl-1H-pyrazol-4-yl)-1H-benzimidazol-1-yl]-2-thiophenecarboxamide] displayed an IC50 of less than 500 nM.

`C[C@@H](Oc1cc(-n2cnc3cc(Cl)ccc32)sc1C(N)=O)c1cccc(OCCN2CCOCC2)c1Cl` [Example 26, 5-(5-Chloro-1H-benzimidazol-1-yl)-3-{[(1R)-1-(2-chloro-3-{[2-(4-morpholinyl)ethyl]oxy}phenyl)ethyl]oxy}-2-thiophenecarboxamide]: the IC50 was less than 500 nM.

In the case of `CC(Oc1cc(-n2cnc3cc(-c4cnn(C)c4)ccc32)sc1C(N)=O)c1ccnc(OC2CCNCC2)c1` (racemic) [Example 79, (±)-5-[5-(1-Methyl-1H-pyrazol-4-yl)-1H-benzimidazol-1-yl]-3-({1-[2-(4-piperidinyloxy)-4-pyridinyl]ethyl}oxy)-2-thiophenecarboxamide], the IC50 was more than 1000 nM.

In turn, `CC(Oc1cc(-n2cnc3cc(-c4cnn(C)c4)ccc32)sc1C(N)=O)c1cccc(OC2CCN(C)CC2)n1` (racemic) [Example 82, (±)-3-[(1-{6-[(1-Methyl-4-piperidinyl)oxy]-2-pyridinyl)ethyl)oxy]-5-[5-(1-methyl-1H-pyrazol-4-yl)-1H-benzimidazol-1-yl]-2-thiophenecarboxamide] yielded a 50% inhibitory concentration (IC50) of more than 1000 nM.

In the case of `CC(Oc1cc(-n2cnc3cc(-c4cnn(C)c4)ccc32)sc1C(N)=O)c1ccnc(OC2CCN(C)CC2)n1` (racemic) [Example 78, (±)-3-[(1-(2-[(1-methyl-4-piperidinyl)oxy]-4-pyrimidinyl}ethyl)oxy]-5-[5-(1-methyl-1H-pyrazol-4-yl)-1H-benzimidazol-1-yl]-2-thiophenecarboxamide], the IC50 is more than 1000 nM.

`CC(Oc1cc(-n2cnc3cc(-c4cnn(C)c4)ccc32)sc1C(N)=O)c1cccc(OC2CCNCC2)n1` (racemic) [Example 81, (±)-5-[5-(1-Methyl-1H-pyrazol-4-yl)-1H-benzimidazol-1-yl]-3-({1-[6-(4-piperidinyloxy)-2-pyridinyl]ethyl}oxy)-2-thiophenecarboxamide]: the IC50 is more than 1000 nM.

For `C[C@@H](Oc1cc(-n2cnc3cc(F)c(F)cc32)sc1C(N)=O)c1cccc(OC2CCNCC2)c1Cl` [Example 65, 3-({(1R)-1-[2-chloro-3-(4-piperidinyloxy)phenyl]ethyl}oxy)-5-(5,6-difluoro-1H-benzimidazol-1-yl)-2-thiophenecarboxamide], the IC50 is less than 500 nM.

`COc1cc2ncn(-c3cc(O[C@H](C)c4cccc(OCC5CCN(C(=O)OC(C)(C)C)CC5)c4Cl)c(C(N)=O)s3)c2cc1OC` [Example 39, 1,1-Dimethylethyl 4-[({3-[(1R)-1-({2-(aminocarbonyl)-5-[5,6-bis(methyloxy)-1H-benzimidazol-1-yl]-3-thienyl}oxy)ethyl]-2-chlorophenyl}oxy)methyl]-1-piperidinecarboxylate] came in with an IC50 of 500 to 1000 nM.

In turn, `C[C@@H](Oc1cc(-n2cnc3ccccc32)sc1C(N)=O)c1cccc(OCCN2CCN(C)CC2)c1Cl` [Example 17] registered a half-inhibitory concentration (IC50) of less than 500 nM.

The compound `C[C@@H](Oc1cc(-n2cnc3ccc(C#N)cc32)sc1C(N)=O)c1cccc(OC2CCN(C)CC2)c1Cl` [Example 4, 3-((1R)-1-{2-chloro-3-[(1-methylpiperidin-4-yl)oxy]phenyl}-ethoxy)-5-(6-cyano-1H-benzimidazol-1-yl)thiophene-2-carboxamide] gave an IC50 of less than 500 nM.
